Where two headings read alike, the source gives them in different places.

Assay [1] relates to A2780/CP70 cells. Briefly: MTT cytotoxicity assay, A2780/CP70 cells. The following applies: for IC50: Homo sapiens, read-out: IC50 cytotoxicity. The method, then:
In separate experiments, cells were seeded in 96‐well plates and after 24 h elapsed they were exposed to different concentrations of drugs or vehicle. Cells were then left in the incubator for a further 24 or 48 h. Then the media was replaced with fresh media containing no drug and the cells were left in the incubator. MTT assay was performed after 96 h elapsed from the time when cells were exposed to drugs or vehicle.
The cells were then left in the incubator and MTT assay was performed 96 h following the initial exposure to the drugs.
The selective index (SI) is the ratio of mean IC50 values for non‐cancer cells to cancer cells. […] While the isobologram can be considered predominantly as a graphical depiction of drug interactions, the combination index (CI) is a quantitative representation. It relates the actual drug concentration in the combination to the concentration of the single drug that achieves the same effect. […] Here, CI analysis was used to investigate combinations at 50% cytotoxicity. To this end the IC50 of the viability dose–response curves were determined by non‐linear regression curve fit analysis (GraphPad Prism, v5.00).
CIA+B is the combination index of A and B; C A the concentration of A applied in combination; C B the concentration of B applied in combination; IC50 A the IC50 of drug A when it was applied individually to the cells; IC50 B = IC50 of drug B when it was applied individually to the cells.

Assay [2] relates to A2780/CP70 cells. The assay can be described thus: Mitochondrial membrane potential assay (JC-1), A2780/CP70 cells. Particulars: A2780/CP70, 10-50 μM, 24 h, dose-dependent. It is filed as cell-based, human. The protocol: The mitochondrial membrane potential assay was performed to detect the loss in mitochondrial potential (de‐polarization), which is a vital step in apoptosis.[36] Cells were seeded in T25 flasks at 4 × 10^5 cells per flask and were incubated for 48 h or until they reached confluency. After the incubation time elapsed, drugs at concentrations of 10, 30, and 50 μM or vehicle were added to the flasks and further incubated for 24 h. After 24 h elapsed, the cells were harvested and suspended in PBS. Cell viability and number were determined by the cell viability assay using via1 cassettes on NC‐3000 system. The samples were diluted in PBS to 1 × 10^6 cells/mL and 2.5 μg/mL of JC‐1 dye was added to each sample. JC‐1 is a […] dye, which stains as fluorescent red as it aggregates in the mitochondrial matrix. In the absence of mitochondrial membrane potential, JC‐1 localizes in the cytosol in its fluorescent green form. Following the addition of JC‐1, the cells were incubated for 10–30 min at 37°C. […] 12.5 μL of samples were loaded on to an A‐8 slide and were analyzed using the NC‐3000 image cytometry. The degree of apoptosis (in proportional to the loss in mitochondrial membrane potential) was measured using a scatter plot of JC‐1 red fluorescence versus JC‐1 green fluorescence.

The subject of assay [3] is A2780/CP70 cells. Briefly: Cell cycle analysis (DAPI, NC-3000), A2780/CP70 cells. It is filed as cell-based, human. The following applies: 48 h. The method, then:
Cells were seeded in T25 flasks at 4 × 10^5 cells per flask and were incubated for 48 h or until they reached confluency. […] After the incubation time elapsed cells were suspended in PBS with a density closer to 1 × 10^6cells/mL. The cells were washed twice with 1× PBS before the addition of 250 μL of lysis buffer (solution 10) supplemented with 10 μg/mL DAPI (solution 12) was added to the samples and incubated for 5 min at 37°C. After incubation, 250 μL of stabilization buffer (solution 11) was added. 12.5 μL of samples were loaded on to an A‐8 slide and were analyzed using the NC‐3000 system.

Another assay deals with ARPE19 cells. The assay can be described thus: Annexin V assay, ARPE19 cells. Particulars: ARPE19, 50 μM, 24 h. It is filed as cell-based, human. The protocol: The Annexin V assay was performed to differentiate healthy cells from early and late apoptotic cells. Cells were seeded in T25 flasks at 2.75 × 10^5 cells per flask and were incubated for 24 h. After the incubation time elapsed, drugs at concentrations of 10, 30, and 50 μM or vehicle were added to the flasks and further incubated for 24 h. Cells were suspended in PBS at a density of 4 × 10^5 cells/mL, followed by centrifugation at 400 g for 5 min. The supernatant was removed and replaced with 100 μL of Annexin V mix, 94 μL of Roche buffer, 2 μL of Annexin V‐CF488A, 2 μL of 10 μg/mL of propodium iodide (PI), and 2 μL of Hoechst 33342 buffer. Hoechst 33342 buffer in the Annexin V mix binds to the nuclei in the sample and fluoresces violet. The early apoptotic cells are stained with Annexin V‐CF488A, which fluoresces green. The non‐viable cells are stained by PI, and the late apoptotic cells are stained by both PI and Annexin V‐CF488A, which fluoresces red and green, respectively. […] After the incubation time elapsed, 40 μL of samples were loaded on to an A‐2 slide and were analyzed immediately using the NC‐3000 system. The scatter plot of the fluorescence intensity of Annexin V‐CF488A versus the fluorescence intensity of PI was used as a representation of cells in different stages of apoptosis.

For `CCCCCc1cc(O)c(C/C=C(\C)CCC=C(C)C)c(O)c1` [CBG, cannabigerol], the concentration for half-maximal inhibition (IC50) with A2780/CP70 cells [1] (A2780/CP70, 24 h) worked out at 17.7 ± 0.1 µM; in the assay with A2780/CP70 cells [1] (A2780/CP70, 48 h), 15.4 ± 0.7 µM; in the assay on A2780/CP70 cells [1] (A2780/CP70, 72 h), 12.3 ± 1.4 µM; in the assay on A2780/CP70 cells [1] (A2780/CP70, 96 h) it was 7.1 ± 0.8 µM. The Selectivity index in the assay on A2780/CP70 cells [1] (IC50 ARPE19 / IC50 A2780/CP70, 24 h) was 1.81; in the assay on A2780/CP70 cells [1] (IC50 ARPE19 / IC50 A2780/CP70, 48 h), 1.37; in the assay on A2780/CP70 cells [1] (IC50 ARPE19 / IC50 A2780/CP70, 72 h) it was 1.56; in the assay on A2780/CP70 cells [1] (IC50 ARPE19 / IC50 A2780/CP70, 96 h), 2.45; in the assay on A2780/CP70 cells [1] (IC50 PNT2 / IC50 A2780/CP70, 48 h) it was 1.48; in the assay with A2780/CP70 cells [1] (IC50 PNT2 / IC50 A2780/CP70, 72 h) it was 1.59. The Selectivity index with A2780/CP70 cells [1] (IC50 PNT2 / IC50 A2780/CP70, 96 h) is recorded as 2.56. For the same compound, the “Percentage of apoptotic cells (loss of mitochondrial membrane potential)” value in the assay with A2780/CP70 cells [2] is “induced an increase in the percentage of apoptotic cells”. In addition, the “Cells in G0/G1 phase” value in the assay with A2780/CP70 cells [3] (A2780/CP70, 10 μM) is given as 86.4 ± 0.5%; in the assay with A2780/CP70 cells [3] (A2780/CP70, 30 μM), 90.6 ± 0.4%. Besides, the “Cells in S phase” value with A2780/CP70 cells [3] (A2780/CP70, 30 μM) stood at 5.6 ± 0.6%. Moreover, in the assay with A2780/CP70 cells [3] (A2780/CP70, 50 μM), the “Cells in G2/M phase” value was determined as 16.4 ± 1.9%. In addition, the “Cells in early apoptosis” value with ARPE19 cells is reported as 54 ± 2.1%. Moreover, the “Cells in late apoptosis” value with ARPE19 cells is 5.6 ± 1.8%.

Source of the values: article PMC10723784, “Investigation of the cytotoxicity induced by cannabinoids on human ovarian carcinoma cells” (Pharmacology Research & Perspectives, 2023).
